Data reported in patent publication US12448358B2, “Inhibitors of protein arginine deiminase 1 and methods of preparation and use thereof” (University of Massachusetts, priority 2019, dated 2025).

Columns and labels:
[1] = molecular target: T1, PAD1 (Homo sapiens, UniProt Q9ULC6); experiment: Limit of detection of PAD1 labelling in HEK293TPAD1 cells by probe; assay type: cell-based; conditions: 5 μM probe, 3 h; calculated from PAD1 content 0.06% of the total protein
T1 construct: made in house
T1 sequence (Q9ULC6 1-663): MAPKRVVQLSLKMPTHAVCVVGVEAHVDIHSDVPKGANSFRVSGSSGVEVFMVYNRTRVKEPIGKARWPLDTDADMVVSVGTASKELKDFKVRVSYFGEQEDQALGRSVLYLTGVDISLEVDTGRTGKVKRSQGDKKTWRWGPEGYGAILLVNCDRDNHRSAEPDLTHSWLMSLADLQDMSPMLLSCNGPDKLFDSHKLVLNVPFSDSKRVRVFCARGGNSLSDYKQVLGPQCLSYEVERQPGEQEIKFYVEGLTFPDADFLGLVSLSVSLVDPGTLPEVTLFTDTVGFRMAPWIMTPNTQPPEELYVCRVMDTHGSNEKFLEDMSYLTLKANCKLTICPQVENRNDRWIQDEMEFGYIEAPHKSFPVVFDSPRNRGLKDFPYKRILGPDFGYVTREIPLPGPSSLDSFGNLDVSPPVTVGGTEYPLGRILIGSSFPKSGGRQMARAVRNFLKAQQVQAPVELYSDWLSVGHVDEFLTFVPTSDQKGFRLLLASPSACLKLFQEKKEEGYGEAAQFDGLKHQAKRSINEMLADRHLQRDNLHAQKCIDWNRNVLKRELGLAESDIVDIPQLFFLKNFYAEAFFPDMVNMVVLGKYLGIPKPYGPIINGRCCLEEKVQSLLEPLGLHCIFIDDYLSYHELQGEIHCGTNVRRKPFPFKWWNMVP
Method: FIG. 16. (A) Time-dependent labelling of PAD1 in HEK293TPAD1 cells by 21. HEK293TPAD1 cells were treated with 21 (5 μM) in serum-free DMEM for various times. After the treatment, cells were harvested and flash-frozen in liquid nitrogen. Cell lysates were treated with TAMRA-N3, TCEP, TBTA and CuSO4 for 2 h at room temperature. Time-dependent labelling of PAD1 by 21 was recorded on a Typhoon scanner. (B) Limit of detection of PAD1 in HEK293TPAD1 cells by 21. For this study, cells were treated with 5 μM of 21 in serum-free DMEM for 3 h and decreasing amounts (indicated by total protein content) of lysates were clicked with TAMRA-N3 in the presence of TCEP, TBTA and freshly prepared CuSO4. […] F stands for fluorograph.
Dose-dependent Labelling of PAD1 in HEK293TPAD1 cells with 21. HEK293TPAD1 cells were plated in 6-well plates at a density of ˜1×10^6 cells/well and were allowed to grow in DMEM (supplemented with 10% heat-inactivated fetal bovine serum, 100 units/mL penicillin, 100 μg/mL streptomycin and 0.15 mg/mL hygromycin B) for 12 h. […] Soluble proteins in the lysate were quantified by DC-assay (Bio-Rad). […] Protein bands were visualized by recording in-gel fluorescence using a typhoon scanner (approximate excitation/emission maxima ˜546/579, respectively). […]

[2] = molecular target: T1, PAD1; experiment: Inhibition of RFA labelling of PAD1 (ABPP assay); assay type: binding; conditions: PAD1 2 μM, RFA 2 μM, 37° C., 2 h
Excerpt: The halogen-dependent change in potency of the PAD1 inhibitors was further confirmed using an activity-based protein profiling (ABPP) assay that uses the PAD-targeted probe, rhodamine-conjugated F-amidine (RFA, FIG. 2C).
RFA enables the covalent modification and fluorescent labelling of PADs with the help of its fluoroacetamidine and rhodamine moieties, respectively. However, in the presence of a PAD inhibitor that can compete for binding to the active site, RFA labelling is inhibited. […] Similar results were obtained with the chloroacetamidine-containing compounds 2, 12, 14 and 8 (FIG. 9).
RFA labelling. RFA labelling of PAD1 in the presence of inhibitors followed a protocol similar to that established for PAD2. (Mondal, et al. ACS Chem. Biol. 2018, 13, 1057-1065.) Briefly, PAD1 (2 μM final) was added to prewarmed (10 min at 37° C.) reaction mixture (100 mM TRIS pH 7.4, 50 mM NaCl, 10 mM CaCl2, and 2 mM DTT in a final volume of 30 μL) containing RFA (2 μM final) and DMSO or various concentrations of the inhibitor. […] In-gel fluorescence of the protein bands was recorded using a typhoon scanner (excitation/emission maxima of ˜546/579, respectively) and was quantified using ImageJ software. IC50 values of the inhibitors were obtained by plotting the relative decrease in the fluorescence intensity of protein bands against the concentration of inhibitor. […]

[3] = molecular target: T1, PAD1; experiment: Target engagement assay: labelling of PAD1 in HEK293TPAD1 cells with 21 in the presence of inhibitor; assay type: cell-based; conditions: 5 μM of 21, 3 h, read-out: EC50 of inhibition of labelling of PAD1 by 21
Method: Target Engagement Assay—Labelling of PAD1 in HEK293TPAD1 cells with 21 in the presence of 1. This study followed a similar procedure to that described for the dose-dependent labelling of PAD1 in HEK293TPAD1 cells with 21. Briefly, HEK293TPAD1 cells were treated with 1 mM CaCl2, 5 μM ionomycin, 5 μM of 21, and increasing concentrations (0-50 μM) of 1 in serum-free DMEM for 3 h. Cells were scraped, harvested by centrifugation at 3,000 rpm for 5 min and resuspended in 1×PBS. Lysis was carried out by sonicating the cells with a probe sonicator and lysates were clicked with TAMRA-N3 in the presence of TCEP, TBTA and CuSO4 as described above. Protein bands were separated by SDS-PAGE and were visualized by recording in-gel fluorescence. […] All the experiments were performed at least in duplicate.

Row | LOD of PAD1 in HEK293TPAD1 cells [1] | IC50 [2] | EC50 [3] | Compound
1 | 72 pmol | – | – | C#Cc1c(I)cc(C(=O)N[C@@H](CCCNC(=N)CF)c2nc3ccccc3[nH]2)c(O)c1I [Compound 21]
2 | – | 18 µM | 12.7 µM | N=C(CF)NCCC[C@H](NC(=O)c1cc(I)cc(I)c1O)c1nc2ccccc2[nH]1 [Compound 1]
